Calls of active or inactive are those of the source.
Columns and labels:
[1] = tested on: SN12K1; test: cells; assay type: functional; conditions: Homo sapiens
[2] = molecular target: Heat shock protein HSP 90-alpha (Homo sapiens, UniProt P07900); assay type: functional, organism-based
[3] = microbe, parasite or virus in culture; assay type: functional; conditions: Mycobacterium tuberculosis
[4] = molecular target: Nonstructural protein 1 (Influenza A virus, UniProt Q194T2); assay type: functional, Influenza A virus (A/California/07/2009(H1N1))
[5] = blockers of HIV-1 envelope-mediated cell-cell fusion – cherry-pick, dose response (AID 652057); assay type: functional, cell-based
[6] = HIV-1 AD8 envelope cell-cell fusion blockers – cherry-pick, dose response (AID 652062); assay type: functional, cell-based;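 also: luciferase signal from cell-cell fusion driven by HIV-1 clade B AD8 Env; potency is for inhibitors of fusion seen as a drop in luminescence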
[7] = blockers of HIV-1 ZM109 envelope-driven cell-cell fusion – HeLa effector, CEM target cells, luciferase, cherry-pick, dose response (AID 652058); assay type: functional, cell-based;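 also: luciferase signal from HIV-1 Env mediated cell-cell fusion of effector and target cells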
[8] = molecular target: Luciferin 4-monooxygenase (Photinus pyralis, UniProt P08659); test: inhibition of purified Photinus pyralis luciferase – biochemical, luminescence, dose response (AID 1891)
[9] = Luminescence Cell-Based Dose Confirmation HTS to Identify Inhibitors of Platelet Dense Granule Release. [Related pubchem assays: 1663 (Primary HTS), 1678 (Summary of Project)]; assay type: functional
[10] = molecular target: Genome polyprotein (dengue virus type 2, UniProt P29990); test: flavivirus cap methylation enzyme inhibition – biochemical, confirmation dose response, primary screen (AID 588689); assay type: functional
[11] = viability of uninfected HEp-2 cells – cell-based, HTS, cytotoxicity control for RSV inhibitor project, dose response (AID 2410); assay type: functional; conditions: human respiratory syncytial virus
[12] = tested on: H9c2; test: cells; assay type: functional, cell-based; conditions: Rattus norvegicus, H9c2, Myocardium;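 also: confirmatory concentration-response retest of ultra-high-throughput screening hits for modulation of myocardial damage; cell death induced by hydrogen peroxide oxidative stress; compound pretreatment for 60 min then peroxide exposure for 2 h; potency is for protecting the cells against peroxide damage rather than for killing them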
[13] = molecular target: T1, Small ubiquitin-related modifier 1 (Homo sapiens, UniProt P63165); test: SUMO1 protein-protein binding blockers, potency – biochemical, FRET, dose response (AID 624383); assay type: functional; conditions: read-out: IC50_Mean
[14] = molecular target: T1, Small ubiquitin-related modifier 1; test: SUMO1 protein interaction blockers, potency – biochemical, fluorescence polarization, uHTS hits, dose response (AID 624382); assay type: functional; conditions: read-out: IC50_Mean

Chain of Luciferin 4-monooxygenase (P08659 whole entry): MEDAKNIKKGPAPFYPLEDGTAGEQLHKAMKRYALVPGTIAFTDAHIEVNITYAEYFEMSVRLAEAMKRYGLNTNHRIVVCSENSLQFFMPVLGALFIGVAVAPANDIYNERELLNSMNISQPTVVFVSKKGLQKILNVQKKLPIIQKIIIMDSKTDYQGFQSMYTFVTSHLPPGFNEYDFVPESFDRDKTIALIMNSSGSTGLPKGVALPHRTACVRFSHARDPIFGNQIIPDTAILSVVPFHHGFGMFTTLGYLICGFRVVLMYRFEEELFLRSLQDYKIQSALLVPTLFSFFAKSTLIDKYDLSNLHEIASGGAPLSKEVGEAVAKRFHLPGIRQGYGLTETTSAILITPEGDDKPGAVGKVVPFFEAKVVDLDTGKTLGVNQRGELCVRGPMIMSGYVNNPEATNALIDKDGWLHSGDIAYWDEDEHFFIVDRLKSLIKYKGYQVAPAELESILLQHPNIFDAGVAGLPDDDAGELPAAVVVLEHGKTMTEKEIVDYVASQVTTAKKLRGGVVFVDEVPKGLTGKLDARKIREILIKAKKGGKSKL
Chain of Nonstructural protein 1 (Q194T2 whole entry, the tested form may be a part): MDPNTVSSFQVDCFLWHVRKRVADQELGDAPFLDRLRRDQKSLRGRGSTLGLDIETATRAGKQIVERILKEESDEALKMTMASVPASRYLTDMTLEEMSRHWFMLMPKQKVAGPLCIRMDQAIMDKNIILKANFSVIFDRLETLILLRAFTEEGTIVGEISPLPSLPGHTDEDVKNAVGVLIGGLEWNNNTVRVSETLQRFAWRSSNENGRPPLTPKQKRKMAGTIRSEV
T1 sequence (P63165 whole entry): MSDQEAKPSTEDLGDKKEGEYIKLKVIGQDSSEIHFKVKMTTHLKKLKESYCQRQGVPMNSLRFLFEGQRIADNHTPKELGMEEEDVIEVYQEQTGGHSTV
Chain of Genome polyprotein (P29990 2492-3391 limits assumed): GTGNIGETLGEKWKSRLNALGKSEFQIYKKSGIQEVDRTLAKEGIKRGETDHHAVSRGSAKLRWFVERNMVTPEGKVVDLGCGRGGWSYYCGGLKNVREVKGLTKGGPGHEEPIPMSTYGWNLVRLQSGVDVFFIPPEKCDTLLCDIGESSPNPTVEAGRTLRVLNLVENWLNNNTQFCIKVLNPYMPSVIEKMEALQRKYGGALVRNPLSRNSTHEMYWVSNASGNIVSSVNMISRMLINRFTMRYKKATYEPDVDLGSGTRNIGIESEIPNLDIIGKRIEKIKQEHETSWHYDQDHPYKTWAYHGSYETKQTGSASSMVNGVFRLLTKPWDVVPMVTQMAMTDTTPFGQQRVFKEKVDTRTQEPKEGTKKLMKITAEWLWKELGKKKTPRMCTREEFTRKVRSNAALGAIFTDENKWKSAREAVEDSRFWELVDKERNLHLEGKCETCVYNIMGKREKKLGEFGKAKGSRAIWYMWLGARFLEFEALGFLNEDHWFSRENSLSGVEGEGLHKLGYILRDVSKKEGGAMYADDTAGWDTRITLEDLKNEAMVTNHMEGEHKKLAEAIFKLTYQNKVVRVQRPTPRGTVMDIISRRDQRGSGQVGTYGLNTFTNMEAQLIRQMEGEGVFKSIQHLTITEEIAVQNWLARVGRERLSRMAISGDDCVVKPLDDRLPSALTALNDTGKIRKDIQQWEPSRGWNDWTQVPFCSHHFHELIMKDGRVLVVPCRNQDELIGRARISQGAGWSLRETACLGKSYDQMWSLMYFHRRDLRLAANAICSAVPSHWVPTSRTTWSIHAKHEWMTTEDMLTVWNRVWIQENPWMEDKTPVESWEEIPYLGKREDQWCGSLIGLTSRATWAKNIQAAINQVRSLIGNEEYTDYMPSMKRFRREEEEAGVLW

With `O=c1cc(O)ccn1C1C=C(CO)C(O)C1O` (centres undefined) the GI50 [1] was > 625 µM (inactive).

For `CCN1CCCC1CN(Cc1cc2ccc(C)cc2nc1O)C(S)=Nc1ccc(F)cc1` (centres undefined), the AC50 [2] was 2.64 µM (active).

With `Clc1ccc(NNc2ccnc3cc(Cl)ccc23)cc1` the CC50 [3] was > 40 µM (active) and the IC50 [4] was 34.6 µM (active).

For `Cc1noc(C)c1S(=O)(=O)N(C)C[C@@H]1Oc2ccc(NC(=O)NC3CCCCC3)cc2CC(=O)N([C@H](C)CO)C[C@@H]1C`, the AC50 [5] was 5.98 µM (active), the AC50 [6] was 4.26 µM (active) and the AC50 [7] was 4.3 µM (active).

In the case of `CCC(CC)c1nnc(NC(=O)CCNC(=O)c2ccccc2Cl)s1`, the EC50 [8] was > 112 µM (not active) and the EC50 [9] was > 112 µM (not active).

With `COc1ccc(C(C2C(=O)CC(C)(C)CC2=O)C2C(=O)CC(C)(C)CC2=O)cc1CO` the IC50 [10] was 45.8 µM (active).

In the case of `O=C(O)c1ccc(N=N/C(=N\Nc2ccc(C(=O)O)cc2)c2ccccc2)cc1`, the IC50 [10] was 30.4 µM (active).

With `CN1C(=S)N(c2cccnc2)C(=O)/C1=C\c1ccc(N(C)C)cc1` the IC50 [4] was > 100 µM (active).

For `COC(=O)C(NC(=O)c1ccccc1C)(Nc1ncc(S(=O)(=O)c2ccc([N+](=O)[O-])cc2)s1)C(F)(F)F` (centres undefined), the CC50 [11] was 12.4 µM (active).

In the case of `COc1ccc(S(=O)(=O)Nc2ccc3c(c2)CC(=O)N([C@H](C)CO)C[C@H](C)[C@H](CN(C)S(=O)(=O)c2ccccc2)O3)cc1`, the AC50 [5] was < 0.26 µM (active) and the AC50 [6] was 2.09 µM (active).

In the case of `COc1ccc(CCn2c(Br)nc3c2c(=O)[nH]c(=O)n3C)cc1`, the IC50 [12] was > 79 µM (inactive).

In the case of `CSc1ccccc1C(=O)Nc1nc2ccccc2[nH]1`, the EC50 [8] was > 112 µM (not active) and the EC50 [9] was > 112 µM (not active).

In the case of `Cc1cccc(N=C(S)NCc2ccncc2)c1C`, the EC50 [8] was > 112 µM (not active) and the EC50 [9] was > 112 µM (not active).

With `Cc1ccc(-c2nnc(CSc3nc(C(C)C)nc4sc(C)c(C)c34)o2)cc1` the EC50 [8] was > 112 µM (not active) and the EC50 [9] was > 112 µM (not active).

With `O=C(CN1CCN(c2ncc(C(F)(F)F)cc2Cl)CC1)NCCNc1ncc(C(F)(F)F)cc1Cl` the AC50 [2] was 5.87 µM (active).

With `CC1(C)C2CC[C@]3(C)[C@H](C(=O)C=C4[C@@H]5C[C@@](C)(C(=O)O)CC[C@]5(C)CC[C@]43C)[C@@]2(C)CC[C@@H]1O[C@H]1O[C@H](C(=O)O)[C@@H](O)[C@H](O)[C@H]1O[C@@H]1O[C@H](C(=O)O)[C@@H](O)[C@H](O)[C@H]1O` (some centres undefined) the IC50 [13] was 9.45 µM (active) and the IC50 [14] was > 66.6 µM (inactive).

In the case of `Cc1cc2ccccc2n1CCNC(=O)COc1ccc2ccccc2c1`, the CC50 [11] was 21.4 µM (active).

For `O=C(O)CP(=O)(c1ccccc1)c1ccccc1`, the IC50 [13] was 100 µM (inactive) and the IC50 [14] was > 66.6 µM (inactive).

In the case of `COc1cccc(C=NNC(=O)c2ccncc2)c1O`, the IC50 [4] was 6.26 µM (active).
